Data published in patent publication US12048751B2, “Compositions and methods for assessing gut function” (MediBeacon Inc., priority 2013, dated 2024).

Key:
[1] = Light absorption and emission maxima of the fluorescent challenge molecule; format: physicochemical
Source text: (§1) Example 1 may be categorized as fluorescent challenge molecule is not substantially absorbed by a healthy gut.
Example 2 may be categorized as fluorescent challenge molecule is not substantially absorbed by a healthy gut as the molecular weight is relatively high (344 g/mol).
(§2) Example 3 may be categorized as fluorescent challenge molecule that is substantially absorbed by a healthy gut as the molecular weight is relatively low (198 g/mol).

[2] = Clearance from the body followed by fluorescence signal, with and without ligated kidneys; format: in vivo; conditions: for clearance pathway from the body: fluorescence signal over time
Source text: as §2

[3] = Plasma concentration vs. time after single intravenous and oral dose (IV and oral clearance); format: in vivo, Sprague-Dawley rats; conditions: rats having "normal" gut function; single dose given intravenously and orally (FIG. 3)
Source text: as §1

Row | light absorption maximum [1] | light emission maximum [1] | clearance pathway from the body [2] | fluorescence signal when the kidneys are ligated ([2]; kidneys ligated, no excretion pathway) | oral bioavailability [3] | Compound | clearance pathway from the body ([2]; listed as Example Compound 3)
1 | 396 nm | 536 nm | clears from the body by the renal system | stays elevated |  | Nc1nc(C(=O)O)c(N)nc1C(=O)O [Example 3, 3,6-diaminopyrazine-2,5-dicarboxylic Acid] | clears from the body via the renal system
2 | 445 nm | 560 nm |  |  | very little | Nc1nc(C(=O)N[C@H](CO)C(=O)O)c(N)nc1C(=O)N[C@H](CO)C(=O)O [Example 1, 3,6-diamino-2,5-bis{N-[(1R)-1-carboxy-2-hydroxyethyl]carbamoyl}pyrazine] | 
3 | 486 nm | 600 nm |  |  |  | NC(=O)c1nc(NCC(O)CO)c(C(N)=O)nc1NCC(O)CO (stereo not shown) [Example 2, 3,6-N,N′-bis(2,3-dihydroxypropyl)-2,5-pyrazinedicarboxamide] | 
